pIC50: −log10 of the molar value.

In patent US20070123546A1, “2-amino-7,8-dihydro-6H-pyrido[4,3-d]pyrimidin-5-ones” (Chiron Corporation, priority 2005, published 2007) one finds IC50 data, which are given here for 32 compounds.

The target of the first test is His-tagged N-terminal ATP binding domain (amino acid residues 9-236) of HSP90α (Homo sapiens, UniProt P07900). Briefly: HSP90 inhibitor binding potency: TRF competition binding assay. The conditions noted are these: Table 1; competition with biotinylated radicicol. Put shortly: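 Competition against biotinylated radicicol for binding to the His-tagged 9-236 ATP domain of HSP90α: 2 h, room temperature, HEPES/MgCl2/KCl/BSA buffer. Streptavidin capture, then europium-labeled anti-His antibody and enhancement solution; europium counts give IC50.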
For `Cc1nc(N)nc2c1C(=O)NC(c1ccc(F)cc1-c1ccc(F)nc1)C2` (centres unmarked) [Compound 17, 2-Amino-7-[4-fluoro-2-(6-fluoro-pyridin-3-yl)-phenyl]-4-methyl-7,8-dihydro-6H-pyrido[4,3-d]pyrimidin-5-one], the pIC50 is > 5.00. Turning to `Cc1nc(N)nc2c1C(=O)NC(c1ccc(F)cc1-c1cccnc1Cl)C2` (centres unmarked) [Compound 16, 2-Amino-7-[2-(2-chloro-pyridin-3-yl)-4-fluoro-phenyl]-4-methyl-7,8-dihydro-6H-pyrido[4,3-d]pyrimidin-5-one], the pIC50 was > 5.00. For the compound `Cc1nc(N)nc2c1C(=O)NC(c1ccc(F)cc1-c1cnn(C)c1)C2` (centres unmarked) [Compound 30, 2-Amino-7-[4-fluoro-2-(1-methyl-1H-pyrazol-4-yl)-phenyl]-4-methyl-7,8-dihydro-6H-pyrido[4,3-d]pyrimidin-5-one], the pIC50 was > 5.00.

Regarding `Cc1nc(N)nc2c1C(=O)NC(c1ccc(F)cc1-c1cnccc1Cl)C2` (centres unmarked) [Compound 20, 2-Amino-7-[2-(4-chloro-pyridin-3-yl)-4-fluoro-phenyl]-4-methyl-7,8-dihydro-6H-pyrido[4,3-d]pyrimidin-5-one], the pIC50 is > 5.00.

Staying with this test, now noted: Table 2; competition with biotinylated radicicol.
For `Cc1cccc(-c2cc(F)ccc2[C@H]2Cc3nc(N)ncc3C(=O)N2)c1` [Compound 58, (R)-2-Amino-7-(5-fluoro-3′-methyl-biphenyl-2-yl)-7,8-dihydro-6H-pyrido[4,3-d]pyrimidin-5-one], the pIC50 is > 5.00. On to `COc1cnc(-c2cc(F)ccc2[C@H]2Cc3nc(N)nc(C)c3C(=O)N2)nc1OC` [Compound 51, (R)-2-Amino-7-[2-(4,5-4-methoxy-pyrimidin-2-yl)-4-fluoro-phenyl]-4-methyl-7,8-dihydro-6H-pyrido[4,3-d]pyrimidin-5-one], for which the pIC50 was > 5.00. Same read-out and setting: for `CCOc1nc(-c2cc(F)ccc2[C@H]2Cc3nc(N)nc(C)c3C(=O)N2)cnc1N` [Compound 75, (R)-2-Amino-7-[2-(5-amino-6-ethoxy-pyrazin-2-yl)-4-fluoro-phenyl]-4-methyl-7,8-dihydro-6H-pyrido[4,3-d]pyrimidin-5-one] the value was > 5.00. `Cc1ccc(-c2cc(F)ccc2[C@H]2Cc3nc(N)ncc3C(=O)N2)cc1` [Compound 60, (R)-2-Amino-7-(5-fluoro-4′-methyl-biphenyl-2-yl)-7,8-dihydro-6H-pyrido[4,3-d]pyrimidin-5-one]: the pIC50 was > 5.00.

In the case of `COc1cc(F)ccc1-c1cc(F)ccc1[C@H]1Cc2nc(N)ncc2C(=O)N1` [Compound 56, (R)-2-Amino-7-(5,4′-difluoro-2′-methoxy-biphenyl-2-yl)-7,8-dihydro-6H-pyrido[4,3-d]pyrimidin-5-one], the pIC50 is > 5.00.

Still in this test, the particulars now being: Table 3; competition with biotinylated radicicol.
Turning to `COc1ncc(-c2cc(F)ccc2[C@H]2Cc3nc(N)nc(C)c3C(=O)N2)nc1OC` [Compound 145, 2-Amino-7-[2-(5,6-dimethoxy-pyrazin-2-yl)-4-fluoro-phenyl]-4-methyl-7,8-dihydro-6H-pyrido[4,3-d]pyrimidin-5-one], the pIC50 is > 5.00. With `COc1ccc(-c2cc(F)ccc2[C@H]2Cc3nc(N)nc(C)c3C(=O)N2Cc2ccccc2)cc1F` [Compound 139, (R)-2-Amino-6-benzyl-7-(5,3′-difluoro-4′-methoxy-biphenyl-2-yl)-4-methyl-7,8-dihydro-6H-pyrido[4,3-d]pyrimidin-5-one], the pIC50 was < 5.00. `COc1cccc(-c2cc(F)ccc2[C@H]2Cc3nc(N)nc(C)c3C(=O)N2CC(C)C)n1` [Compound 155, (R)-2-Amino-7-[4-fluoro-2-(6-methoxy-pyridin-2-yl)-phenyl]-6-isobutyl-4-methyl-7,8-dihydro-6H-pyrido[4,3-d]pyrimidin-5-one]: the pIC50 is > 5.00.

For the compound `Cc1nc(N)nc2c1C(=O)N[C@@H](c1ccccc1)C2` [Compound 103, (R)-2-Amino-4-methyl-7-phenyl-7,8-dihydro-6H-pyrido[4,3-d]pyrimidin-5-one], the pIC50 was > 5.00. `Cc1nc(N)nc2c1C(=O)NC(c1ccccc1)C2` (centres unmarked) [Compound 92, 2-Amino-4-methyl-7-phenyl-7,8-dihydro-6H-pyrido[4,3-d]pyrimidin-5-one]: the pIC50 was < 5.00. For `COc1ccc(CN2C(=O)c3c(C)nc(N)nc3C[C@@H]2c2ccc(F)cc2Br)c(OC)c1` [Compound 114, (R)-2-Amino-7-(2-bromo-4-fluoro-phenyl)-6-(2,4-dimethoxy-benzyl)-4-methyl-7,8-dihydro-6H-pyrido[4,3-d]pyrimidin-5-one], the pIC50 was < 5.00. The same measure, in the same setting: under `Cc1nc(N)nc2c1C(=O)N(Cc1ccccc1)[C@@H](c1ccc(F)cc1-c1cccnc1)C2` [Compound 140, (R)-2-Amino-6-benzyl-7-(4-fluoro-2-pyridin-3-yl-phenyl)-4-methyl-7,8-dihydro-6H-pyrido[4,3-d]pyrimidin-5-one] stands > 5.00; under `COc1cncc(-c2cc(F)ccc2[C@H]2Cc3nc(N)nc(C)c3C(=O)N2CC2CCOCC2)n1` [Compound 131, (R)-2-Amino-7-[4-fluoro-2-(6-methoxy-pyrazin-2-yl)-phenyl]-4-methyl-6-(tetrahydro-pyran-4-ylmethyl)-7,8-dihydro-6H-pyrido[4,3-d]pyrimidin-5-one], > 5.00. For `COc1cncc(-c2cc(F)ccc2[C@H]2Cc3nc(N)nc(C)c3C(=O)N2CCCN)n1` [Compound 171, (R)-2-Amino-6-(3-amino-propyl)-7-[4-fluoro-2-(6-methoxy-pyrazin-2-yl)-phenyl]-4-methyl-7,8-dihydro-6H-pyrido[4,3-d]pyrimidin-5-one], the pIC50 is > 5.00. On to `COc1cncc(-c2cc(F)ccc2[C@H]2Cc3nc(N)nc(C)c3C(=O)N2Cc2ccccc2)n1` [Compound 136, (R)-2-Amino-6-benzyl-7-[4-fluoro-2-(6-methoxy-pyrazin-2-yl)-phenyl]-4-methyl-7,8-dihydro-6H-pyrido[4,3-d]pyrimidin-5-one], for which the pIC50 is > 5.00.

Still in this test, the particulars now being: Table 4; competition with biotinylated radicicol.
As to `Cc1cc(F)ccc1-c1cc(F)ccc1[C@H]1Cc2nc(N)ncc2C(=O)N1` [Compound 183, (R)-2-Amino-7-(5,4′-difluoro-2′-methyl-biphenyl-2-yl)-7,8-fihydro-6H-pyrido[4,3-d]pyrimidm-5-one], the pIC50 was > 5.00. On to `CCOc1nc(-c2cc(OC)ccc2[C@H]2Cc3nc(N)nc(C)c3C(=O)N2)cnc1N` [Compound 238, (R)-2-Amino-7-[2-(5-amino-6-ethoxy-pyrazin-2-yl)-4-methoxy-phenyl]-4-methyl-7,8-dihydro-6H-pyrido[4,3-d]pyrimidin-5-one], for which the pIC50 is > 5.00. Take `CCc1nc(-c2ccccc2[C@H]2Cc3nc(N)nc(C)c3C(=O)N2)cnc1N` [Compound 235, (R)-2-Ammo-7-[2-(5-amino-6-ethyl-pyrazin-2-yl)-phenyl]-4-methyl-7,8-dihydro-6H-pyrido[4,3-d]pyrimidin-5-one]: the pIC50 was > 5.00.

For the compound `CCOc1nc(-c2cc(F)ccc2[C@H]2Cc3nc(N)nc(C)c3C(=O)N2)cnc1N` [Compound 196, (R)-2-Amino-7-[2-(5-amino-6-ethoxy-pyrazin-2-yl)-4-fluoro-phenyl]-4-methyl-7,8-dihydro-6H-pyrido[4,3-d]pyrimidin-5-one], the pIC50 was > 5.00. Turning to `COc1nc(-c2ccccc2[C@H]2Cc3nc(N)nc(C)c3C(=O)N2)ncc1F` [Compound 204, (R)-2-Amino-7-[2-(5-fluoro-4-methoxy-pyrimidin-2-yl)-phenyl]-4-methyl-7,8-dihydro-6H-pyrido[4,3-d]pyrimidin-5-one], the pIC50 is > 5.00. Same read-out and setting: for `COc1cncc(-c2ccccc2[C@H]2Cc3nc(N)nc(C)c3C(=O)N2)n1` [Compound 194, (R)-2-Amino-7-[2-(6-methoxy-pyrazin-2-yl)-phenyl]-4-methyl-7,8-dihydro-6H-pyrido[4,3-d]pyrimidin-5-one] the value was > 5.00. On the same count and under the same terms, for `COc1ccc([C@H]2Cc3nc(N)nc(C)c3C(=O)N2)c(-c2cncc(OC)n2)c1` [Compound 227, (R)-2-Amino-7-[4-methoxy-2-(6-methoxy-pyrazin-2-yl)-phenyl]-4-methyl-7,8-dihydro-6H-pyrido[4,3-d]pyrimidin-5-one] the value was > 5.00; for `CCOc1cncc(-c2cc(F)ccc2[C@H]2Cc3nc(N)nc(CC)c3C(=O)N2)n1` [Compound 217, (R)-2-Amino-7-[2-(6-ethoxy-pyrazin-2-yl)-4-fluoro-phenyl]-4-ethyl-7,8-dihydro-6H-pyrido[4,3-d]pyrimidin-5-one], > 5.00; for `CCc1nc(N)nc2c1C(=O)N[C@@H](c1ccccc1-c1csc(OC)n1)C2` [Compound 201, (R)-2-Amino-4-ethyl-7-[2-(2-methoxy-thiazol-4-yl)-phenyl]-7,8-dihydro-6H-pyrido[4,3-d]pyrimidin-5-one], ≤ 5.00. Still for that read-out and setting: for `CCOc1cncc(-c2cc(OC)ccc2[C@H]2Cc3nc(N)nc(C)c3C(=O)N2)n1` [Compound 239, (R)-2-Amino-7-[2-(6-ethoxy-pyrazin-2-yl)-4-methoxy-phenyl]-4-methyl-7,8-dihydro-6H-pyrido[4,3-d]pyrimidin-5-one] the value was > 5.00; for `COc1nc(-c2ccccc2[C@H]2Cc3nc(N)nc(C)c3C(=O)N2)cs1` [Compound 188, (R)-2-Amino-7-[2-(2-methoxy-thiazol-4-yl)-phenyl]-4-methyl-7,8-dihydro-6H-pyrido[4,3-d]pyrimidin-5-one], > 5.00; for `Cc1ccc(-c2cc(F)ccc2[C@H]2Cc3nc(N)ncc3C(=O)N2)cc1` [Compound 182, (R)-2-Amino-7-(5-fluoro-4′-methyl-biphenyl-2-yl)-7,8-dihydro-6H-pyrido[4,3-d]pyrimidin-5-one], > 5.00. `CCc1nc(N)nc2c1C(=O)N[C@@H](c1ccc(F)cc1-c1cccc(OC)n1)C2` [Compound 211, (R)-2-Amino-4-ethyl-7-[4-fluoro-2-(6-methoxy-pyridin-2-yl)-phenyl]-7,8-dihydro-6H-pyrido[4,3-d]pyrimidin-5-one]: the pIC50 was > 5.00.
